Patent US8524899B2, “Alternative heterocycles for DNA recognition” (California Institute of Technology, priority 2003, dated 2013)
Blank lines part the entries; values can stand above or below the molecule they belong to.

Columns and labels:
Stability at acidic pH = type: physicochemical
[1] = test system: 32P-3′-labeled EcoRI/PvuII restriction fragment of plasmid pDR1 (sites 5′-TGTCTA-3′, 5′-TGTTTA-3′, 5′-TGTATA-3′, 5′-TGTGTA-3′); assay: Quantitative DNase I footprint titration on pDR1 restriction fragment; type: binding
Protocol: FIG. 4 illustrates the equilibrium association constants Ka[M^−1] for Polyamide Oligomers A-C, N, Q, and P. The reported association constants are the average values obtained from three DNase I footprint titration experiments, with the standard deviation for each data set indicated in the experiments. Assays were carried out at 22° C. at pH 7.0 in the presence of 10 mM Tris-HCl, 10 mM KCl, 10 mM MgCl2, and 5 mM CaCl2 with an equilibration time of 12 h. Specificities are give in brackets under the Ka values and calculated as Ka (match)/Ka (mismatch).
To examine whether an imidazo[4,5-b]pyridine unit Ip can replace a five-membered imidazole ring Im within an eight-ring hairpin polyamide regarding DNA binding affinity and specificity, polyamide oligomer A and its related all five-membered ring hairpin oligomer N were evaluated by DNase I footprint titrations under identical conditions. Quantitative DNase I footprint titration experiments (10 mM Tris-HCl, 10 mM KCl, 10 mM MgCl2, 5 mM CaCl2, pH 7.0, 22° C., equilibration time: 12 h) were performed on a ^32P-3′-labeled EcoRI/PvuII restriction fragment of plasmid pDR1 0 (FIG. 2). This DNA fragment contains four 6-base pair binding sites which differ at one position, 5′-TGTCTA-3′,5′-TGTTTA-3′,5′-TGTATA-3′, and 5′-TGTGTA-3′. The latter one was regarded as the possible match site having a G•C base pair under the Ip/Py or Im/Py pair, respectively.
Construction of plasmid DNA. The plasmid pDR1 was constructed by hybridization of the two oligonucleotides 5′-GATCAGGCTGTC-[…]-GCTGCTGTTTATGGACG-GCTGCTGTATATGGACGG-CTGGGCGA-3′ (SEQ ID NO:1) and 5′-AGCTTCGC-[…]-[…]-3′ (SEQ ID NO:2) followed by ligation into the BamHI/HinDIII restriction fragment of pUC19 using T4 DNA ligase. The resultant plasmid was then used to transform E. coli XL-1 Blue Supercompetent cells. Ampicillin-resistant white colonies were selected from 25 mL Luria-Bertani agar plates containing […] ampicillin, treated with XGAL and IPTG solutions and grown overnight at 37° C. Cells were harvested after overnight growth at 37° C. Large-scale plasmid purification was performed with Qiagen, purification kits. The presence of the desired insert was determined by dideoxy sequencing. DNA concentrations were determined at 260 nm using the relationship 1 OD unit) 50 μg/mL duplex DNA.
Preparation of 3′-End-Labeled DNA Restriction Fragments. The plasmid pDR1 was linearized with EcoRI and PVuII and treated with the Klenow fragment of DNA […], [R-^32P]-dATP, and [R-^32P]-TTP for 3′-end labeling. The labeled 3′-fragment was purified on a 7% nondenaturing polyacrylamide gel (5% cross-linkage) and the desired 284 base pair band isolated after visualization by autoradiography. The DNA was precipitated with 2-propanol, the pellet washed, lyophilized, and resuspended in RNase-free H2O. Chemical sequencing reactions were performed according to published protocols. (Troschütz, R.; Lückel, A. Arch. Pharm., 325, 617-619, 1992.)
DNase I Footprinting. All reactions were carried out in a volume of 400 μL according to published procedures. Quantitation by storage phosphor autoradiography and determination of equilibrium association constants were as previously described. (Trauger, J. W.; Dervan, P. B. Methods Enzymol., 340, 450-466, 2001.)

[2] = test system: EcoRI/PvuII restriction fragment of plasmid pAU2 (5′-TGGXCA-3′); assay: Quantitative DNase I footprint titration, X•Y position, plasmid pAU2; type: binding; conditions: match and mismatch sites
Source text: FIG. 10 illustrates the equilibrium association constants Ka[M^−1] and specificities for polyamide oligomers D-F, R, S, and V on plasmids pAU2 and pCAB2 (X•Y position). […]
Evaluation of the DNA recognition properties of the new ligands oligomers D, E, and F at the imidazole/benzimidazole position (referred to as R•S position) should reveal the sequence preference of the benzimidazole ring. […] To examine the consequences of the ring replacement for DNA binding in terms of affinity and specificity, the benzimidazole-containing hairpin polyamides oligomers D, E, and F were evaluated by quantitative DNase I footprint titrations and the results compared to those from related oligomers R, S, and V, which were investigated under identical conditions. Quantitative DNase I footprint titration experiments (10 mm Tris-HCl, 10 mm KCl, 10 mm MgCl2, 5 mm CaCl2, pH 7.0, 22° C., equilibration time: 12 h) were performed on ^32P-3′-labeled EcoRI/PvuII restriction fragments of plasmids pPWF2 and pCAB1 (to probe the R•S position, FIG. 7); and pAU2 and pCAB2 (to probe the X•Y position, FIG. 8). Equilibrium association constants (Ka) for the polyamide oligomers at the binding sites of interest were determined as described above in Example 3.

[3] = test system: EcoRI/PvuII restriction fragment of plasmid pPWF2 (5′-TGRACA-3′); assay: Quantitative DNase I footprint titration, R•S position, plasmid pPWF2; type: binding
Source text: FIG. 9 illustrates the equilibrium association constants Ka[M^−1] and specificities for polyamide oligomers D-F, R, S, and V on plasmids pPWF2 and pCAB1 (R•S position).
When replacing PyPy, PyIm, and PyHp dimers with BiPy (as in oligomer D), BiIm (as in oligomer E), and BiHp constructs (as in oligomer F), respectively, the question arises whether a) the benzimidazole ring is capable of cooperating with the imidazole ring on the opposite strand of the hairpin polyamide to specifically recognize a C•G base pair according to the binding model and the general pairing rules, and b) whether the steric and electronic peculiarities of the benzimidazole ring disturb the binding ability of the adjacent heterocycle. In order to address this question for the given polyamide design, the recognition behavior of the benzimidazole-containing polyamides was probed in two of the six base pair positions R•S and X•Y of the recognition sequence (5′-TGRACA-3′ and 5′-TGGXCA-3′ for oligomers D and F; 5′-TGRCAA-3′ and 5′-TGGXAA-3′ for oligomer E; FIG. 6) and compared with the DNA-binding ability of the related all five-membered oligomers R, S, and V at the same recognition sequences.
Evaluation of the DNA recognition properties of the new ligands oligomers D, E, and F at the imidazole/benzimidazole position (referred to as R•S position) should reveal the sequence preference of the benzimidazole ring. The binding properties at the neighboring ring position (referred to as X•Y position) were expected to disclose whether the recognition capabilities of the adjacent internal five-membered ring are disturbed by the benzimidazole moiety. To examine the consequences of the ring replacement for DNA binding in terms of affinity and specificity, the benzimidazole-containing hairpin polyamides oligomers D, E, and F were evaluated by quantitative DNase I footprint titrations and the results compared to those from related oligomers R, S, and V, which were investigated under identical conditions. Quantitative DNase I footprint titration experiments (10 mm Tris-HCl, 10 mm KCl, 10 mm MgCl2, 5 mm CaCl2, pH 7.0, 22° C., equilibration time: 12 h) were performed on ^32P-3′-labeled EcoRI/PvuII restriction fragments of plasmids pPWF2 and pCAB1 (to probe the R•S position, FIG. 7); and pAU2 and pCAB2 (to probe the X•Y position, FIG. 8). Equilibrium association constants (Ka) for the polyamide oligomers at the binding sites of interest were determined as described above in Example 3.

5′-AGWWCT-3′ (W=A, T) = assay: DNase I footprint titration, multiple Hz/Py pairs; type: binding
Protocol: FIG. 17 is a table showing the association equilibrium constant Ka[M^−1] for polyamide oligomers H and K. The reported association constants are the average values obtained from three DNase I footprint titration experiments, with the standard deviation given in parenthesis. Assays were carried out at 22° C. at pH 7.0 in the presence of 10 mM Tris-HCl, 10 mM KCl, 10 mM MgCl2, and 5 mM CaCl2 at pH 7.0.
For polyamides Im-Hz-Py-Py-γ-Im-Hz-Py-Py-β-Dp (oligomer H) and Im-Py-Hz-Py-γ-Im-Py-Hz-Py-β-Dp (oligomer K) the ability of multiple Hz/Py pairs to distinguish poly A,T sequences was tested by varying two DNA base pairs across from the Hz/Py and Py/Hz pairs (bolded in the sequences listed above) within the parent-sequence context, 5′-AGWWCT-3′, (W=A, T) and comparing the relative affinities of the resulting complexes (FIG. 16). Equilibrium association constants (Ka) for polyamide oligomers containing multiple Hp/Py pairs have been reported and are included for comparison with values presented here (FIG. 17). […] The recognition profiles of polyamide oligomers containing multiple Hz/Py pairs (oligomers H and K) are similar to those reported for multiple Hp/Py pairs.
Footprinting Experiments.—Plasmids pDHN1 and pDEH10 were constructed and 5′-radiolabeled as previously described. […]

stability at acidic pH (Stability at acidic pH): stable
selectivity of T•A over A•T ([1]; 5′-TGTTTA-3′ vs A•T site): 18 fold
binding at C•G site ([1]; C•G site (5′-TGTCTA-3′), for Q concentration range up to 200 nM): No binding was observed
lower affinity at G•C mismatch site 5′-TGTGTA-3′ ([1]; relative to match site 5′-TGTTTA-3′): at least 80 fold
equilibrium association constant Ka ([1]; site 5′-TGTTTA-3′ (T•A), pH 7.0, 22° C., equilibration 12 h): 5.7e+08 M⁻¹
Structure (SMILES): CNC(=O)c1cc(NC(=O)c2cc(NC(=O)c3cc(NC(=O)c4cc(NC(=O)[C@H](N)CCNC(=O)c5cc(NC(=O)c6ccc7nc(-c8cc(NC(=O)c9nccn9C)cn8C)[nH]c7c6O)cn5C)cn4C)cn3C)cn2C)cn1C [B]

binding affinities and specificities compared with related oligomers R, V, X•Y position [2]: same order of magnitude
match site Ka, R•S position ([3]; 5′-TGRACA-3′ match site, pH 7.0, 22° C., 12 h): 2.5e+10 M⁻¹
match site affinity compared with related all five-membered oligomer, R•S position ([3]; D vs R, F vs V): six to seven-fold higher
single base pair mismatch specificities compared with related oligomer, R•S position ([3]; D vs R, F vs V): comparable
Structure (SMILES): CNC(=O)c1cc(NC(=O)c2ccc3nc(-c4c(O)c(NC(=O)c5nc(NC(=O)[C@H](N)CCNC(=O)c6cc(NC(=O)c7cc(NC(=O)c8nc(NC(=O)c9nccn9C)cn8C)cn7C)cn6C)cn5C)cn4C)[nH]c3c2)cn1C [F]

specificity for match sequence 5′-AGTACT-3′ over 5′-AGAACT-3′ and 5′-AGATCT-3′ (5′-AGWWCT-3′ (W=A, T)): greater than 14 fold
Structure (SMILES): CN(C)CCCNC(=O)CCNC(=O)c1cc(NC(=O)c2cc(NC(=O)c3ccc4nc(-c5nc(NC(=O)CCCNC(=O)c6cc(NC(=O)c7cc(NC(=O)c8ccc9nc(-c%10nccn%10C)[nH]c9c8O)cn7C)cn6C)cn5C)[nH]c4c3O)cn2C)cn1C [H]

specificity for match sequence 5′-AGTACT-3′ over 5′-AGAACT-3′ and 5′-AGATCT-3′ (5′-AGWWCT-3′ (W=A, T)): poor site selectivity
Structure (SMILES): CN(C)CCCNC(=O)CCNC(=O)c1cc(NC(=O)c2ccc3nc(-c4cc(NC(=O)c5nc(NC(=O)CCCNC(=O)c6cc(NC(=O)c7ccc8nc(-c9cc(NC(=O)c%10nccn%10C)cn9C)[nH]c8c7O)cn6C)cn5C)cn4C)[nH]c3c2O)cn1C [K]
